Measurements reported in patent US8168567B2, “Thiadiazolyl oxyphenyl amidines and the use thereof as a fungicide” (Bayer Cropscience AG, priority 2007, dated 2012).
Where two headings read alike, the source gives them in different places.

Assay: logP determination (acidic, pH 2.3)
Type: physicochemical
[1] = acidic, read-out: logP (acidic)

logP (read-out: log P (pH 2.3))	logP [1]	SMILES
3.44		CC(C)(C)c1nsc(Cl)n1 [3-(tert-Butyl)-5-chloro-1,2,4-thiadiazole]
3.29		Cc1cc(Oc2nc(C(C)(C)C)ns2)c(C)cc1N [4-[(3-(tert-Butyl)-1,2,4-thiadiazol-5-yl)oxy]-2,5-dimethylaniline]
2.02		CCN(C)/C=N/c1cc(C)c(Oc2nc(C(C)(C)C)ns2)cc1C [A-1, N′-{4-[(3-(tert-butyl)-1,2,4-thiadiazol-5-yl)oxy]-2,5-dimethylphenyl}-N-ethyl-N-methylimidoformamide]
	2.15	Cc1cc(Oc2nc(C(C)(C)C)ns2)c(C)cc1N=CN(C)C(C)C [A-2, N′-{4-[(3-(tert-butyl)-1,2,4-thiadiazol-5-yl)oxy]-2,5-dimethylphenyl}-N-isopropyl-N-methylimidoformamide]
	2.22	Cc1cc(Oc2nc(C(C)(C)C)ns2)c(C)cc1/N=C/N1CCCCC1 [A-3, 4-[(3-(tert-butyl)-1,2,4-thiadiazol-5-yl)oxy]-2,5-dimethyl-N-[(1E)-piperidin-1-ylmethylene]aniline]
	2.11	CCN(C)C=Nc1cc(Cl)c(Oc2nc(C(C)(C)C)ns2)cc1C [A-8, N′-{4-[(3-(tert-butyl)-1,2,4-thiadiazol-5-yl)oxy]-5-chloro-2-methylphenyl}-N-ethyl-N-methylimidoformamide]
	2.36	Cc1cc(Oc2nc(C(C)(C)C)ns2)c(Cl)cc1/N=C/N1CCCCC1 [A-9, 4-[(3-(tert-butyl)-1,2,4-thiadiazol-5-yl)oxy]-5-chloro-2-methyl-N-[(1E)-piperidin-1-ylmethylene]aniline]
